# In patent US20060134801A1, “Methods and compositions involving MDA-7” (Board of Regents, The University of Texas System, priority 2003, published 2006):
# pIC50: −log10 of the molar value.
# What was measured:
# H1299 [1] = assay: Cell proliferation assay (trypan blue); assay type: cell-based; conditions: Homo sapiens, NCI-H1299; read-out: IC50 of growth inhibition
# Procedure: (§1) All three cell lines (A549, H1299, and CCD-16) were seeded in 60-mm-diameter tissue culture dishes at a density of 1×10^5 cells/dish in triplicate. […] The concentrations of sulindac tested were 0.125, 0.25, and 0.5 mM. At 72 h after the start of treatment, the cells were harvested by trypsinization, washed, and subjected to typan-blue exclusion assay as previously described (Saeki et al., 2000).
# CCD-16 [2] = assay: Ad-GFP transduction efficiency with sulindac (flow cytometry); assay type: cell-based, human; conditions: Ad-GFP 100 vp/cell, 24 h
# Procedure: (§2) To determine the effect of sulindac on adenovirus transduction, tumor and normal cells were infected with Ad-GFP at 100 vp/cell and analyzed for GFP expression at 24 h by FACS.
# H1299 [3] = assay: as above; assay type: cell-based, human; conditions: Ad-GFP 100 vp/cell, 24 h
# Procedure: as §2
# A549 [4] = assay: as above; assay type: cell-based, human; conditions: Ad-GFP 100 vp/cell, 24 h
# Procedure: as §2
# NF-κB = NF-κB activation by EMSA; assay type: cell-based, human; conditions: H1299 and A549
# H1299 [5] = assay: Cell cycle distribution by FACS; assay type: cell-based, human; conditions: 72 h
# Procedure: (§3) Each treatment group was tested in triplicate. The concentrations of sulindac used were the same as those for the cell-proliferation assay. At 72 h after the start of the treatment, cells were harvested, washed, and analyzed for cell cycle phases and apoptotic fraction as previously described (Saeki et al., 2000). The cell cycle phases and DNA contents were analyzed using FACScan (EPICS XL-MCL; Beckman Coulter, Fullerton, Calif.).
# A549 [6] = assay: Cell cycle distribution by FACS; assay type: cell-based, human; conditions: 72 h
# Procedure: as §3
# [7] = tested on: H1299 lung tumor xenografts; assay: H1299 subcutaneous xenograft, Ad-mda7 with sulindac; conditions: vector 3×10^9 vp intratumoral thrice a week; sulindac 40 mg/kg i.p. daily
# Procedure: In mice receiving sulindac, 40 mg/kg was administered i.p. every day. Animals were weighed once a week to determine the body weight. Tumor growth was monitored and measured three times a week as described previously (Saeki et al., 2002; Ramesh et al., 2003). At 22-25 days after initiation of the treatment all animals were killed via CO2 inhalation, and the tumors were removed for histopathologic examination and western blot analysis. Experiments were performed two separate times for reproducibility and statistical significance.
# CCD-16 [8] = assay: Cell proliferation assay (trypan blue); assay type: cell-based, human
# Procedure: as §1
# [9] = target: T1, proteasome in H1299 cells (Homo sapiens, UniProt P28074); assay: Proteasome activity assay and ubiquitinated protein western blot; assay type: cell-based; conditions: vs untreated control cells
# T1 construct: endogenous in cells; host or cells: H1299 human lung cancer cells, treated and then lysed; 20 µg total lysate protein per reaction
# T1 sequence (P28074 60-263): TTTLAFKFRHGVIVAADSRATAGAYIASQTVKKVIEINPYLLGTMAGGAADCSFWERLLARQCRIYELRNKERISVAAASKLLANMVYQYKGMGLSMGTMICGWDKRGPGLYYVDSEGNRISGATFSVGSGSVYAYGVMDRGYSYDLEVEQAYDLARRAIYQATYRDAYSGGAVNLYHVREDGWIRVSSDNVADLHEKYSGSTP
# Procedure: Proteasome activity assays were performed as previously described (Choi et al., 2003). […] The sulindac concentrations tested were the same as those in the other assays. At 24 h after the start of treatment, the cells were lysed in proteasome buffer (10 mM Tris-HCl, pH 7.5, 1 mM EDTA, 20% glycerol, 5 mM ATP, and 4 mM DTT), sonicated, and then centrifuged at 1300×g at 4° C. for 10 min. The upper supernatant phase was collected, and the protein concentration of cell lysates was determined as previously described (Saeki et al., 2000).
# To assay the chymotrypsin-like activity of the proteasome, the fluorogenic substrate Suc-LLVY-AMC (Chemicon International, Inc., Temecula, Calif.) was used. Twenty micrograms of total protein from each treatment group described above was diluted to 100 μl in reaction buffer (25 mM HEPES, pH 7.5, 0.5 mM EDTA, 0.05% NP-40, and 0.001% SDS). […] The intensity of fluorescence in each sample solution was measured using a fluorescence plate reader (Dynatech Laboratories, Chantily, Va.) at 360-nm excitatory and 460-nm emission wavelengths. All readings were standardized using the fluorescence intensity of an equal volume of free 7-Amino-4-methylcoumarin (AMC) solution (50 μM). The values were expressed as percentages for control greater than the internal positive control percentages provided by the supplier.
# A549 [10] = assay: Cell proliferation assay (trypan blue); assay type: cell-based, human
# Procedure: All three cell lines (A549, H1299, and CCD-16) were seeded in 60-mm-diameter tissue culture dishes at a density of 1×10^5 cells/dish in triplicate. […] […] At 72 h after the start of treatment, the cells were harvested by trypsinization, washed, and subjected to typan-blue exclusion assay as previously described (Saeki et al., 2000).
structure (smiles),measurement,setting,value
CC1=C(CC(=O)O)c2cc(F)ccc2/C1=C\c1ccc([S+](C)[O-])cc1 (centres unmarked) [Sulindac],pIC50,H1299 [1],3.21
same,transduction efficiency,CCD-16 [2]; sulindac 0.125 mM,12.1 ± 0.4%
same,transduction efficiency,CCD-16 [2]; sulindac 0.25 mM,11.1 ± 1.0%
same,transduction efficiency,CCD-16 [2]; sulindac 0.5 mM,13.7 ± 0.4%
same,transduction efficiency,H1299 [3]; sulindac 0.125 mM,80.0 ± 0.5%
same,transduction efficiency,H1299 [3]; sulindac 0.25 mM,78.6 ± 1.2%
same,transduction efficiency,H1299 [3]; sulindac 0.5 mM,82.7 ± 2.8%
same,transduction efficiency,A549 [4]; sulindac 0.125 mM,52.4 ± 0.6%
same,transduction efficiency,A549 [4]; sulindac 0.25 mM,51.5 ± 1.3%
same,transduction efficiency,A549 [4]; sulindac 0.5 mM,65.0 ± 1.5 + a %
same,NF-κB activation,NF-κB,inhibit NF-κB activation
same,cells in G1,H1299 [5]; sulindac 0.125 mM,66.4%
same,cells in G2/M,H1299 [5]; sulindac 0.125 mM,11.4%
same,cells in S,H1299 [5]; sulindac 0.125 mM,22.3%
same,cells in G1,H1299 [5]; sulindac 0.5 mM,74.6%
same,cells in G2/M,H1299 [5]; sulindac 0.5 mM,12.7%
same,cells in S,H1299 [5]; sulindac 0.5 mM,13.0%
same,cells in G1,A549 [6]; sulindac 0.125 mM,64.8%
same,cells in G2/M,A549 [6]; sulindac 0.125 mM,6.4%
same,cells in S,A549 [6]; sulindac 0.125 mM,28.9%
same,cells in G1,A549 [6]; sulindac 0.5 mM,75.6%
same,cells in G2/M,A549 [6]; sulindac 0.5 mM,6.0%
same,cells in S,A549 [6]; sulindac 0.5 mM,18.5%
same,tumor growth,[7],No significant growth inhibition
same,pIC50,"CCD-16 [8]; Homo sapiens, read-out: IC50 of growth inhibition",3.03
same,inhibitory effect on cell proliferation,"CCD-16 [8]; normal cells, 1 and 2 mM",60%
same,proteasome activity,[9],does not inhibit
same,pIC50,"A549 [10]; Homo sapiens, A549, read-out: IC50 of growth inhibition",3.24
same,inhibitory effect on cell proliferation,"A549 [10]; tumor cells, 1 and 2 mM",> 90%
